According to ChEMBL document CHEMBL5226279, “Mercaptoacetamide: A promising zinc-binding group for the discovery of selective histone deacetylase 6 inhibitors” (Eur J Med Chem, 2021):
In brackets after ≈: the same amount, converted by molar mass.

Key:
[1] = Lipophilicity, logD of the compound at 37 degreeC; type: physicochemical; conditions: octanol/water
[2] = Solubility of compound in PBS at pH 7.4 at 37 degreeC measured after 24 hrs; type: physicochemical
[3] = Solubility of compound in HCl at pH 1.2 at 37 degreeC measured after 24 hrs; type: physicochemical
[4] = Apparent permeability across apical to basolateral side in human Caco-2 cells; type: ADME, cell-based
[5] = Apparent permeability across basolateral to apical side in human Caco-2 cells; type: ADME, cell-based
[6] = Stability in human plasma assessed as half life; type: ADME, cell-free
[7] = Stability in mouse plasma assessed as half life; type: ADME, cell-free
[8] = Stability in porcine plasma assessed as half life; type: ADME, cell-free, Sus scrofa; conditions: pig
[9] = Stability in rat plasma assessed as half life; type: ADME, cell-free
[10] = Stability in human liver microsomes assessed as half life; type: ADME, Microsome
[11] = Stability in dog liver microsomes assessed as half life; type: ADME, Canis lupus familiaris, Microsome
[12] = Stability in rat liver microsomes assessed as half life; type: ADME, Microsome
[13] = Cmax in mouse at 400 mg/kg, ip; type: ADME, organism-based; design: dose 400 mg/kg, route ip; conditions: in vivo
[14] = Tmax in mouse at 400 mg/kg, ip; type: ADME, organism-based; conditions: in vivo
[15] = AUC in mouse at 400 mg/kg, ip; type: ADME, organism-based; design: dose 400 mg/kg, route ip; conditions: in vivo
[16] = Half life in mouse at 400 mg/kg, ip; type: ADME, organism-based; conditions: in vivo
[17] = Clearance in mouse at 400 mg/kg, ip; type: ADME, organism-based; conditions: in vivo
Histone deacetylase 1 [18] = biological target: T1, Histone deacetylase 1 (Homo sapiens, UniProt Q13547); assay: Inhibition of human HDAC1 using FAM-labeled acetylated peptide as substrate incubated for 17 hrs by fluorescence based assay
Histone deacetylase 2 [19] = biological target: T2, Histone deacetylase 2 (Homo sapiens, UniProt Q92769); assay: Inhibition of human HDAC2 using FAM-labeled acetylated peptide as substrate incubated for 17 hrs by fluorescence based assay
Histone deacetylase 8 = biological target: T3, Histone deacetylase 8 (Homo sapiens, UniProt Q9BY41); assay: Inhibition of human HDAC8 using FAM-labeled acetylated peptide as substrate incubated for 17 hrs by fluorescence based assay
T3 sequence (Q9BY41 whole entry): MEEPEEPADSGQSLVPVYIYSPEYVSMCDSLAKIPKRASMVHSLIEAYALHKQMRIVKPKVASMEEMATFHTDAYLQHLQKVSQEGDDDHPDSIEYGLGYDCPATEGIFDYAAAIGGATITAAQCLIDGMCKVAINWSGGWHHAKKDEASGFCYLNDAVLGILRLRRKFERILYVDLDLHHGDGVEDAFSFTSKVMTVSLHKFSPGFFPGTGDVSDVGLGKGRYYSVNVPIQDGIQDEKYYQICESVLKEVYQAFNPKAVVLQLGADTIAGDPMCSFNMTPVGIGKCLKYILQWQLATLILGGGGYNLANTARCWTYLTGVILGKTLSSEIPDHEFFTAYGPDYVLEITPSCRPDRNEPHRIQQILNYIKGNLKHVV

[20] = biological target: T4, Protein deacetylase HDAC6 (Homo sapiens, UniProt Q9UBN7); assay: Inhibition of human HDAC6 using FAM-labeled acetylated peptide as substrate incubated for 17 hrs by fluorescence based assay
T4 sequence (Q9UBN7 whole entry): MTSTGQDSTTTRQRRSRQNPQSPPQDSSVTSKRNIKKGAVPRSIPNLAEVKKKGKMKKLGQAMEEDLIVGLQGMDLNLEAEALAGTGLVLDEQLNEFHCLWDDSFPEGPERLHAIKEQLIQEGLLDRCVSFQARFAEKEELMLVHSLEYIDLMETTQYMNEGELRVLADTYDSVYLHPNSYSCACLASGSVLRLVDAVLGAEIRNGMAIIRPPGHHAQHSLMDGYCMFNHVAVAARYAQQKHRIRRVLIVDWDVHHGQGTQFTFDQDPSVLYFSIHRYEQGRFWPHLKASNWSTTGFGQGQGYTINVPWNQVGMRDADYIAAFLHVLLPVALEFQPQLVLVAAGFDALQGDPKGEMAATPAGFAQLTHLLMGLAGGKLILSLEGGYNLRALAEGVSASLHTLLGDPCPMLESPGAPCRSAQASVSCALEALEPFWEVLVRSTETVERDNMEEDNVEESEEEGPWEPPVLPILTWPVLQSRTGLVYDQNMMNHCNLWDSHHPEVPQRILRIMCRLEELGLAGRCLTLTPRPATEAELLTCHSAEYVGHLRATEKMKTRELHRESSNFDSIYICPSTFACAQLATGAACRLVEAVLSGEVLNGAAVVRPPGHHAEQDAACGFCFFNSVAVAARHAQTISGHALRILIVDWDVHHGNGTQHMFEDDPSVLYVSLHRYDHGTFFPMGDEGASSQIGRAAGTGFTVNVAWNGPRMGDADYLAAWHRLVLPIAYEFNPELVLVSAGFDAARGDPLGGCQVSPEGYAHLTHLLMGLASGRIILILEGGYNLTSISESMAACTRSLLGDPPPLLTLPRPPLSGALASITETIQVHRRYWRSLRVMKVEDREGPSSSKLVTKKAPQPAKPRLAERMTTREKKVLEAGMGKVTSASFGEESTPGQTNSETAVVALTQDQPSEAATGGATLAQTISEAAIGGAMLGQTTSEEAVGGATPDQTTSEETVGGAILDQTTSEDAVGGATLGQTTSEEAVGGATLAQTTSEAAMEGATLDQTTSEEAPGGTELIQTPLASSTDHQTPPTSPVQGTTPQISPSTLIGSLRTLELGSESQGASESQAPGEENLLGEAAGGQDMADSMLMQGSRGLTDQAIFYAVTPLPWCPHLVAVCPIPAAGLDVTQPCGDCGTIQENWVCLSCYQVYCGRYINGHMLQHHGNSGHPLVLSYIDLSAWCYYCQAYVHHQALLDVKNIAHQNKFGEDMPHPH

[21] = biological target: T5, Polyamine deacetylase HDAC10 (Homo sapiens, UniProt Q969S8); assay: Inhibition of human HDAC10 using FAM-labeled acetylated peptide as substrate incubated for 17 hrs by fluorescence based assay
T5 sequence (Q969S8 whole entry): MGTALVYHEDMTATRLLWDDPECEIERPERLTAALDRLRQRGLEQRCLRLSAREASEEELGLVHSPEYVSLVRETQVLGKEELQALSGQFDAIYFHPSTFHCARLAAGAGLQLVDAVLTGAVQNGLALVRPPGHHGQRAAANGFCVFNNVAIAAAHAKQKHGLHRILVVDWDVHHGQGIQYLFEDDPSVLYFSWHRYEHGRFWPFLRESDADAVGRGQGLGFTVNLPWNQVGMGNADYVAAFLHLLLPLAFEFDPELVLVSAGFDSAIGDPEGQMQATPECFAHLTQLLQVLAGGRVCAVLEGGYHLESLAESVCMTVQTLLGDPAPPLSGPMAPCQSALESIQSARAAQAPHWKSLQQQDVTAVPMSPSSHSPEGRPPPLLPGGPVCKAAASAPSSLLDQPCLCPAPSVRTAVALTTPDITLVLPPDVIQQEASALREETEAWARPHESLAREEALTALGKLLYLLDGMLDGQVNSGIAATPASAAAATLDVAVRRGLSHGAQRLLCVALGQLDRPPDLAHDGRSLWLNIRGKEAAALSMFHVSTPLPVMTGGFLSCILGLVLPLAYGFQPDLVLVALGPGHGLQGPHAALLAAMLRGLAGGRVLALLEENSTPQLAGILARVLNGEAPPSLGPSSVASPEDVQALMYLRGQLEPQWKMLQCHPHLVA

Histone deacetylase 1 [22] = biological target: T1, Histone deacetylase 1; assay: Inhibition of human HDAC1
Histone deacetylase 1 [23] = biological target: T1, Histone deacetylase 1; assay: Inhibition of human full length recombinant HDAC1 expressed in baculovirus infected Sf9 cells using RHKKAc as substrate preincubated for 5 to 10 mins followed by substrate addition and measured after 2 hrs by fluorescence based analysis
[24] = biological target: T4, Protein deacetylase HDAC6; assay: Inhibition of human full length recombinant HDAC6 expressed in baculovirus infected Sf9 cells using RHKKAc as substrate preincubated for 5 to 10 mins followed by substrate addition and measured after 2 hrs by fluorescence based analysis
Histone deacetylase 2 [25] = biological target: T2, Histone deacetylase 2; assay: Inhibition of human full length recombinant HDAC2 expressed in baculovirus infected Sf9 cells using RHKKAc as substrate preincubated for 5 to 10 mins followed by substrate addition and measured after 2 hrs by fluorescence based analysis
Histone deacetylase = assay: Inhibition of HDAC (unknown origin); type: protein assay, Homo sapiens
Histone deacetylase 4 = Histone deacetylase 4 (Homo sapiens, UniProt P56524); assay: Inhibition of HDAC4 (unknown origin)
[26] = biological target: T5, Polyamine deacetylase HDAC10; assay: Inhibition of HDAC10 (unknown origin)

T2 sequence (Q92769 whole entry): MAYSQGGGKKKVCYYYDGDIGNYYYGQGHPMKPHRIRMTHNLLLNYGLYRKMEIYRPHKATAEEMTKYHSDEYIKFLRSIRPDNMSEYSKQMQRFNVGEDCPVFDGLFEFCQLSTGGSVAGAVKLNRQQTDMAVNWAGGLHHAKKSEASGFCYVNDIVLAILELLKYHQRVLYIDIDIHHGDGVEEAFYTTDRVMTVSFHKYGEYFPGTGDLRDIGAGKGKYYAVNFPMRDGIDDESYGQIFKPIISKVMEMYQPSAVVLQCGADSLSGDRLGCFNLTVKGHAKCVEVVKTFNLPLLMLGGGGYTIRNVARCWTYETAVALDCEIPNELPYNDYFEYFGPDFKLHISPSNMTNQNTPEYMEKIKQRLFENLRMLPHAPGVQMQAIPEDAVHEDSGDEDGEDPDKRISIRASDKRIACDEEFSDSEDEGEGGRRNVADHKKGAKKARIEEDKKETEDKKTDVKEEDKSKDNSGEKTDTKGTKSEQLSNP
T1 sequence (Q13547 whole entry): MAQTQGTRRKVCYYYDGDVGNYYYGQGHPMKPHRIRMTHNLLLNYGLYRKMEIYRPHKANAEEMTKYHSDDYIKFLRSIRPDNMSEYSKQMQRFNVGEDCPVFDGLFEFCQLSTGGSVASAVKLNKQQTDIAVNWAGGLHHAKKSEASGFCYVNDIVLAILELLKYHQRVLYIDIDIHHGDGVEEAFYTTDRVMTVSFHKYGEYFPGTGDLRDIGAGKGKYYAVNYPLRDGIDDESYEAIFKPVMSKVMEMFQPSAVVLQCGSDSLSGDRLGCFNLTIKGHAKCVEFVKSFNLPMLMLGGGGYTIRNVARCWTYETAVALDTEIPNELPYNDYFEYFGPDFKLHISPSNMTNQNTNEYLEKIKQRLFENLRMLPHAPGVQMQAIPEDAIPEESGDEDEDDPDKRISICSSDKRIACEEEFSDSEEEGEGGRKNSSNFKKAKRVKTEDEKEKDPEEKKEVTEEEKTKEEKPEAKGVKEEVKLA
Chain of Histone deacetylase 4 (P56524 whole entry): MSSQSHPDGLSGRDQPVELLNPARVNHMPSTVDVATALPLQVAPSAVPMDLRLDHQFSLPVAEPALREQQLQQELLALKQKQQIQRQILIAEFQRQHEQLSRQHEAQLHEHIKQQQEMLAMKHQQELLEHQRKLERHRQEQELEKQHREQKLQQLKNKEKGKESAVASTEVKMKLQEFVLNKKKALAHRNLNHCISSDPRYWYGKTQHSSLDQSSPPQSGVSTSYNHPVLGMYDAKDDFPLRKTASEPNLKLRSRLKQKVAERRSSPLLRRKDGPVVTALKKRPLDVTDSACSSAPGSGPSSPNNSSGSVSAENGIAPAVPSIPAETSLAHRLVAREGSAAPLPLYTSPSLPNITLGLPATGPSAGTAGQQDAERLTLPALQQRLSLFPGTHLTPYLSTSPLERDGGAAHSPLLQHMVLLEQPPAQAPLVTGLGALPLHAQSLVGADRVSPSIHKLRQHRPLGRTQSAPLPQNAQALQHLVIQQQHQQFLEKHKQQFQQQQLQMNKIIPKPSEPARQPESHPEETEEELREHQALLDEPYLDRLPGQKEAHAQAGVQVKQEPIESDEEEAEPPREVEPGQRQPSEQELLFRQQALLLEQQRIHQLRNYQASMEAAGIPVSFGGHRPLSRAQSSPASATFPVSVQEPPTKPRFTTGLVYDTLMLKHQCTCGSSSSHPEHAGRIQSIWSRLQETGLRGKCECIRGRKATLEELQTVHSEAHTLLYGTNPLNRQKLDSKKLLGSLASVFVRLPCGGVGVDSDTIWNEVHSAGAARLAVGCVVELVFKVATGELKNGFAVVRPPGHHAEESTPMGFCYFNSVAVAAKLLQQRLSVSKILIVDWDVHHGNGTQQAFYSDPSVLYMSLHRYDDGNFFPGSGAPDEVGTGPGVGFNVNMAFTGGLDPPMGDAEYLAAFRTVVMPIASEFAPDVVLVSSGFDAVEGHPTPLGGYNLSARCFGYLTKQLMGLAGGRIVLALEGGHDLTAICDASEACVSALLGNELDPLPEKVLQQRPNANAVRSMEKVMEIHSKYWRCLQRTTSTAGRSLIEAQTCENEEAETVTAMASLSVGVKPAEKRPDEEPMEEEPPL

| SMILES | IC50 (Histone deacetylase 1 [23]) [µM] | IC50 [24] [µM] | IC50 (Histone deacetylase 2 [25]) [µM] | further results |
| --- | --- | --- | --- | --- |
| CN(C)c1ccc(C(=O)NCCCCCNC(=O)CS)cc1 | – | – | – | logD [1]: 2.19; solubility at 24 h [2]: 120 µg/mL (≈ 371 µM); solubility at 24 h [3]: 1000 µg/mL (≈ 3090 µM); Papp A→B [4]: 7.33 ×10⁻⁶ cm/s; Papp B→A [5]: 10 ×10⁻⁶ cm/s; half-life [6]: 1.28 h; half-life [7]: 2.88 h; half-life [8]: 1.48 h; half-life [9]: 1.65 h; half-life [10]: 1.13 h; half-life [11]: 0.717 h; half-life [12]: 1.17 h; Cmax [13]: 1540 nM; Tmax [14]: 0.5 h; AUC [15]: 4.23 µM·h; half-life [16]: 1.98 h; CL/F [17]: 81.2 mL/min |
| N[C@@H](Cc1ccccc1)C(=O)Nc1ccccc1-c1ccc(NC(=O)CCCCCNC(=O)CS)cc1 | – | – | – | IC50 (Histone deacetylase 1 [18]): 2.76 µM; IC50 (Histone deacetylase 2 [19]): > 30 µM; IC50 (Histone deacetylase 8): 5.19 µM; IC50 [20]: 0.45 µM; IC50 [21]: 7.22 µM |
| NCC(=O)Nc1ccccc1-c1ccc(NC(=O)CCCCCNC(=O)CS)cc1 | – | – | – | IC50 (Histone deacetylase 1 [18]): 3.96 µM; IC50 (Histone deacetylase 2 [19]): 16 µM; IC50 (Histone deacetylase 8): 6.03 µM; IC50 [20]: 0.39 µM; IC50 [21]: 7.43 µM |
| O=C(CS)NCCCCCn1ccc2cc(Cl)c(Cl)cc21 | – | – | – | IC50 (Histone deacetylase 1 [22]): 7.9 µM |
| Cc1onc(-c2ccccc2)c1/C=C/CCCCCNC(=O)CS | 28 | 3.5 | – | – |
| Cc1onc(-c2ccccc2)c1C(=O)NCCCCCNC(=O)C(C)(C)S | > 30 | > 30 | > 30 | – |
| Cc1onc(-c2ccccc2)c1/C=C\CCCCCNC(=O)CS | > 30 | 4.8 | – | – |
| Cc1onc(-c2ccccc2)c1C(=O)NCCCCCNC(=O)[C@H](C)S | > 30 | > 30 | > 30 | – |
| Cc1noc(-c2ccccc2)c1C#CCCCCNC(=O)C(C)(C)S | > 30 | > 30 | > 30 | – |
| Cc1onc(-c2ccccc2)c1/C=C/c1ccc(CNC(=O)C(C)(C)S)cc1 | > 30 | > 30 | > 30 | – |
| Cc1onc(-c2ccccc2)c1COCCCCCNC(=O)[C@@H](C)S | 1.5 | 0.83 | – | – |
| Cc1onc(-c2ccccc2)c1COCCCCCNC(=O)[C@H](C)S | > 30 | > 30 | – | – |
| Cc1noc(-c2ccccc2)c1C#CCCCCCNC(=O)C(C)(C)S | > 30 | > 30 | > 30 | – |
| Cc1onc(-c2ccccc2)c1C=CCCCCCNC(=O)C(C)(C)S (mixture of isomers) | > 30 | > 30 | > 30 | – |
| Cc1onc(-c2ccccc2)c1C=CCCCCCNC(=O)C(C)S (mixture of isomers) | > 30 | 9.8 | > 30 | – |
| Cc1onc(-c2ccccc2)c1C=CCCCCCNC(=O)CS (mixture of isomers) | > 30 | 2.7 | > 30 | – |
| CC(C)C(NC(=O)CCNC(=O)CS)C(=O)Nc1cnc2ccccc2c1 (racemic) | – | – | – | IC50 (Histone deacetylase): 25.1 µM |
| Cc1noc(-c2cccc(F)c2)c1C#CCCCCCNC(=O)C(C)S (racemic) | 3.7 | 2.6 | 9.4 | – |
| Cc1onc(-c2ccccc2)c1C(=O)NCCCCCNC(=O)C(C)S (racemic) | > 30 | 1.1 | > 30 | – |
| Cc1onc(-c2ccccc2)c1/C=C/c1ccc(CNC(=O)C(C)S)cc1 (racemic) | > 30 | > 30 | > 30 | – |
| Cc1noc(-c2ccccc2)c1C#CCCCCCNC(=O)C(C)S (racemic) | 2.7 | 2 | 7.5 | – |
| CC(C)C(NC(=O)CCCNC(=O)CS)C(=O)Nc1cnc2ccccc2c1 (racemic) | – | – | – | IC50 (Histone deacetylase): 3.02 µM |
| Cc1onc(-c2ccccc2)c1COCCCCCNC(=O)C(C)S (racemic) | 9.6 | 0.85 | 14 | – |
| O=C(/C=C/c1cccc(S(=O)(=O)Nc2ccccc2)c1)NO [BELINOSTAT] | – | – | – | IC50 (Histone deacetylase 4): 1.24 µM; IC50 [26]: 0.031 µM |
| O=C(CCCCCCC(=O)Nc1ccccc1)NO [VORINOSTAT] | – | – | – | Papp A→B [4]: 3 ×10⁻⁶ cm/s; Papp B→A [5]: 6.33 ×10⁻⁶ cm/s |
